Reference: PubChem BioAssay AID248 (DTP/NCI, 2004)
“And” between values parts separate entries of the source, which are not always exact repeats. Equal entries are not always repeated. Inconclusive results and toxic doses are left out. No stated cut-off is given here; in the data, active means T/C of 150% or more; inactive means T/C below 125%.

Tested on: L1210 leukemia ip in BDF1 mice, survival T/C
Assay: NCI In Vivo Anticancer Drug Screen. Data for tumor model L1210 Leukemia (intraperitoneal) in B6D2F1 (BDF1) mice
Conditions: endpoint: mean survival time, higher = longer survival
How it was run: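 Read-out is survival time, reported as the treated-group measurement over the vehicle-control measurement.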

[1] = dose: 100.0 mg/kg/injection, schedule: Q01DX009 (ip), vehicle: Klucel (hydroxypropylcellulose) (HPC)
[2] = dose: 100.0 mg/kg/injection, schedule: Q04DX003 (ip), vehicle: saline with Tween-80
[3] = dose: 200.0 mg/kg/injection, schedule: Q04DX003 (ip), vehicle: saline with Tween-80
[4] = dose: 400.0 mg/kg/injection, schedule: Q04DX003 (ip), vehicle: saline with Tween-80
[5] = dose: 200.0 mg/kg/injection, schedule: Q01DX009 (ip), vehicle: Klucel (hydroxypropylcellulose) (HPC)
[6] = dose: 100.0 mg/kg/injection, schedule: Q04DX002 (ip), vehicle: Klucel (hydroxypropylcellulose) (HPC)
[7] = dose: 200.0 mg/kg/injection, schedule: Q04DX002 (ip), vehicle: Klucel (hydroxypropylcellulose) (HPC)
[8] = dose: 400.0 mg/kg/injection, schedule: Q04DX002 (ip), vehicle: Klucel (hydroxypropylcellulose) (HPC)
[9] = dose: 100.0 mg/kg/injection, schedule: Q04DX003 (ip), vehicle: Klucel (hydroxypropylcellulose) (HPC)
[10] = dose: 200.0 mg/kg/injection, schedule: Q04DX003 (ip), vehicle: Klucel (hydroxypropylcellulose) (HPC)
[11] = dose: 400.0 mg/kg/injection, schedule: Q04DX003 (ip), vehicle: Klucel (hydroxypropylcellulose) (HPC)
[12] = dose: 100.0 mg/kg/injection, schedule: Q01DX001 (ip), vehicle: saline
[13] = dose: 200.0 mg/kg/injection, schedule: Q01DX001 (ip), vehicle: saline
[14] = dose: 400.0 mg/kg/injection, schedule: Q01DX001 (ip), vehicle: saline
[15] = dose: 100.0 mg/kg/injection, schedule: Q01DX001 (ip), vehicle: saline with Tween-80
[16] = dose: 200.0 mg/kg/injection, schedule: Q01DX001 (ip), vehicle: saline with Tween-80
[17] = dose: 75.0 mg/kg/injection, schedule: Q01DX001 (ip), vehicle: saline
[18] = dose: 150.0 mg/kg/injection, schedule: Q01DX001 (ip), vehicle: saline
[19] = dose: 300.0 mg/kg/injection, schedule: Q01DX001 (ip), vehicle: saline
[20] = dose: 12.5 mg/kg/injection, schedule: Q04DX002 (ip), vehicle: Klucel (hydroxypropylcellulose) (HPC)

Measured: T/C

CNc1ncc2nc(C)c(=O)n(C)c2n1
inactive: dose: 50.0 mg/kg/injection, schedule: Q01DX009 (ip), vehicle: Klucel (hydroxypropylcellulose) (HPC) 98 % of control | [1] 95 % of control

NC(=O)n1ncnc1N
inactive: dose: 50.0 mg/kg/injection, schedule: Q01DX001 (ip), vehicle: carboxymethylcellulose (CMC) 110 % of control | dose: 100.0 mg/kg/injection, schedule: Q01DX001 (ip), vehicle: carboxymethylcellulose (CMC) 101 % of control | [2] 96 % of control | dose: 200.0 mg/kg/injection, schedule: Q01DX001 (ip), vehicle: carboxymethylcellulose (CMC) 104 % of control | [3] 97 % of control | dose: 400.0 mg/kg/injection, schedule: Q01DX001 (ip), vehicle: carboxymethylcellulose (CMC) 104 % of control | [4] 105 % of control

CCOC(=O)Nc1ccc(C)c(Cl)c1
inactive: [1] 105 % of control | [5] 108 % of control | dose: 400.0 mg/kg/injection, schedule: Q01DX009 (ip), vehicle: Klucel (hydroxypropylcellulose) (HPC) 103 % of control

O=C1CCN(CCCN2CCC(=O)N(Cc3ccccc3)C2=S)C(=S)N1Cc1ccccc1
inactive: dose: 100.0 mg/kg/injection, schedule: Q04DX002 (ip), vehicle: DMSO 87 % of control | dose: 200.0 mg/kg/injection, schedule: Q04DX002 (ip), vehicle: DMSO 104 % of control | dose: 400.0 mg/kg/injection, schedule: Q04DX002 (ip), vehicle: DMSO 101 % of control

O=C1N(c2ccccc2)C(c2ccccc2)C1(c1ccccc1)c1ccccc1 (stereo unspecified)
inactive: dose: 100.0 mg/kg/injection, schedule: Q01DX001 (ip), vehicle: gum acacia 92 % of control | dose: 200.0 mg/kg/injection, schedule: Q01DX001 (ip), vehicle: gum acacia 86 % of control | dose: 400.0 mg/kg/injection, schedule: Q01DX001 (ip), vehicle: gum acacia 94 % of control

CCCCNC(C)(C)C(SSC(c1cccs1)C(C)(C)NCCCC)c1cccs1 (stereo unspecified)
inactive: dose: 25.0 mg/kg/injection, schedule: Q01DX009 (ip), vehicle: saline sonified 100 % of control | dose: 50.0 mg/kg/injection, schedule: Q01DX009 (ip), vehicle: saline sonified 100 % of control | dose: 100.0 mg/kg/injection, schedule: Q01DX009 (ip), vehicle: saline sonified 96 % of control | dose: 100.0 mg/kg/injection, schedule: Q04DX003 (ip), vehicle: saline sonified 90 % of control

CCCCCCNC(=O)c1cccc(C(=O)NCCCCCC)c1
inactive: [6] 88 % of control | [7] 94 % of control | [8] 98 % of control

CCOC(=O)C(O)(C(=O)OCC)c1ccccc1
inactive: dose: 100.0 mg/kg/injection, schedule: Q01DX001 (ip), vehicle: other 97 % of control | dose: 200.0 mg/kg/injection, schedule: Q01DX001 (ip), vehicle: other 102 % of control | dose: 400.0 mg/kg/injection, schedule: Q01DX001 (ip), vehicle: other 103 % of control

CC(C)=CCc1ccc(O)cc1
inactive: dose: 100.0 mg/kg/injection, schedule: Q01DX009 (ip), vehicle: saline + alcohol 95 % of control | [9] 96 % of control | [10] 100 % of control | [11] 95 % of control

C1=CC2CCC1NO2 (stereo unspecified)
inactive: [12] 105 % of control | [13] 95 % of control | [14] 101 % of control

N#COc1cccc(OCCOc2cccc(OC#N)c2)c1
inactive: dose: 50.0 mg/kg/injection, schedule: Q01DX009 (ip), vehicle: saline with Tween-80 99 % of control | dose: 50.0 mg/kg/injection, schedule: Q04DX003 (ip), vehicle: saline with Tween-80 97 % of control | [15] 89 % of control | dose: 100.0 mg/kg/injection, schedule: Q01DX009 (ip), vehicle: saline with Tween-80 94 % of control | [2] 90 % of control | [16] 87 % of control | dose: 200.0 mg/kg/injection, schedule: Q01DX009 (ip), vehicle: saline with Tween-80 100 % of control | [3] 87 % of control

CCCCCCCCCCCCCCCCCC(=O)[O][Sn]([CH2]CCC)([CH2]CCC)[O]C(=O)CCCCCCCCCCCCCCCCC
inactive: dose: 6.25 mg/kg/injection, schedule: Q04DX003 (ip), vehicle: other 100 % of control | dose: 12.5 mg/kg/injection, schedule: Q04DX003 (ip), vehicle: other 114 % of control | dose: 25.0 mg/kg/injection, schedule: Q04DX003 (ip), vehicle: other 101 % of control | dose: 50.0 mg/kg/injection, schedule: Q04DX003 (ip), vehicle: other 101 % of control

Cc1nc(C)c(-c2ccc([N+](=O)[O-])cc2)o1
inactive: [15] 105 % of control | [16] 105 % of control | dose: 400.0 mg/kg/injection, schedule: Q01DX001 (ip), vehicle: saline with Tween-80 102 % of control

NC(N)=N/N=C\c1ccc(/C=N/N=C(N)N)cc1
inactive: dose: 60.0 mg/kg/injection, schedule: Q01DX Z (oral), vehicle: saline 103 % of control | dose: 120.0 mg/kg/injection, schedule: Q01DX Z (oral), vehicle: saline 108 % of control | dose: 240.0 mg/kg/injection, schedule: Q01DX Z (oral), vehicle: saline 101 % of control | dose: 480.0 mg/kg/injection, schedule: Q01DX Z (oral), vehicle: saline 108 % of control

c1ccc(CNc2nn[nH]n2)cc1
inactive: [2] 96 % of control | [3] 96 % of control | [4] 94 % of control

O=[N+]([O-])c1cccc(OCCOc2ccc(S(=O)(=O)F)cc2)c1
inactive: [2] 106 % of control | [3] 88 % of control | [4] 93 % of control

Oc1c(CN2CCCC2)cc(Nc2nc(/C=C/c3ccc(Cl)cc3)nc(Cl)c2-c2ccc(Cl)cc2)cc1CN1CCCC1
inactive: [17] 96 % of control | dose: 75.0 mg/kg/injection, schedule: Q04DX003 (ip), vehicle: Klucel (hydroxypropylcellulose) (HPC) 98 % of control | [18] 96 % of control | dose: 150.0 mg/kg/injection, schedule: Q04DX003 (ip), vehicle: Klucel (hydroxypropylcellulose) (HPC) 91 % of control | [19] 93 % of control | dose: 300.0 mg/kg/injection, schedule: Q04DX003 (ip), vehicle: Klucel (hydroxypropylcellulose) (HPC) 91 % of control

CCCCCCCCCNC(C)=O
inactive: [1] 97 % of control | [5] 92 % of control

CC(=O)OC1CCCCC1NC(=O)NCCCl (stereo unspecified)
inactive: [20] 87 % of control | dose: 25.0 mg/kg/injection, schedule: Q04DX002 (ip), vehicle: Klucel (hydroxypropylcellulose) (HPC) 93 % of control | dose: 50.0 mg/kg/injection, schedule: Q04DX002 (ip), vehicle: Klucel (hydroxypropylcellulose) (HPC) 101 % of control | [6] 91 % of control | [7] 103 % of control | [8] 106 % of control and 95 % of control

CC1(C)N=C(N)N=C(N)N1c1ccc(C(F)(F)F)cc1
inactive: dose: 25.0 mg/kg/injection, schedule: Q01DX001 (ip), vehicle: saline 107 % of control | dose: 50.0 mg/kg/injection, schedule: Q01DX001 (ip), vehicle: saline 117 % of control | [12] 103 % of control and 107 % of control

Cc1cc(=O)[nH]c(N)n1
inactive: [9] 114 % of control | [2] 98 % of control | [10] 101 % of control | [3] 98 % of control | [11] 93 % of control | [4] 96 % of control

CC12C(=O)NC(=O)N3CCCN4C(=O)NC(=O)C1(C)C4C32 (stereo unspecified)
inactive: [17] 94 % of control | [18] 97 % of control | [19] 100 % of control

C[N+]1(C)C2CCCC1CCC2
inactive: dose: 3.12 mg/kg/injection, schedule: Q04DX002 (ip), vehicle: Klucel (hydroxypropylcellulose) (HPC) 93 % of control | dose: 6.25 mg/kg/injection, schedule: Q04DX002 (ip), vehicle: Klucel (hydroxypropylcellulose) (HPC) 104 % of control | [20] 90 % of control

CN(Cc1ccccc1)C(=O)C(c1ccccc1)c1ccccc1
inactive: [6] 89 % of control | [7] 86 % of control | [8] 96 % of control

CC(C)C(=O)NNC(=O)C(C)C
inactive: [9] 100 % of control | [10] 108 % of control | [11] 106 % of control

c1ccc(CN2C3c4ccccc4C2c2ccccc23)cc1
inactive: [12] 96 % of control | [13] 112 % of control | [14] 95 % of control

COc1ccc(C(=O)/C=C\c2ccc(Cl)c(Cl)c2)cc1
inactive: [6] 100 % of control | [7] 97 % of control | [8] 107 % of control
